Counter-ions that a name gives are not always drawn. Like-named read-outs stand apart in the source and are kept apart here.
Assays:
[1] = system: OTC; assay: OTC expression modulated by compounds (OTC/Geo Mean of HKs, DMSO = 1); type: cell-based, human; conditions: OTC expression
Protocol: Analysis of the fold changes in expression as measured by qRT-PCR were performed using the technique below. The control was DMSO, and the treatment was the selected compound (CPD). The internal control was GAPDH or B-Actin, and the gene of interest is the target. First, the averages of the 4 conditions were calculated for normalization: DMSO:GAPDH, DMSO:Target, CPD: GAPDH, and CPD:Target. Next, the ΔCT of both control and treatment were calculated to normalize to internal control (GAPDH) using (DMSO:Target)−(DMSO:GAPDH)=ΔCT control and (CPD:Target)−(CPD: GAPDH)=ΔCT experimental. Then, the ΔΔCT was calculated by ΔCT experimental−ΔCT control.

[2] = system: CPS1; assay: RNA-seq, CPS1 expression in compound-treated primary human hepatocytes; type: cell-based
[3] = system: NAGS
[4] = system: multiple urea cycle-related genes; assay: RNA-seq, compounds that modulate multiple urea cycle-related genes; type: cell-based; conditions: primary human hepatocytes; for Up-regulated Genes: urea cycle-related genes significantly increased by the compound
[5] = system: ARG1; assay: RNA-seq, ARG1 expression in compound-treated primary human hepatocytes; type: cell-based; conditions: RNA-seq, primary human hepatocytes, compounds that significantly increase ARG1 expression
[6] = system: OTC; assay: RNA-seq, OTC expression in compound-treated primary human hepatocytes; type: cell-based
[7] = compound at 10 uM final concentration
[8] = RNA-seq, primary human hepatocytes, compounds that significantly increase NAGS expression

Molecule: C=CCNC1=C2C[C@@H](C)C[C@H](OC)[C@H](O)[C@@H](C)/C=C(\C)[C@H](OC(N)=O)[C@@H](OC)/C=C\C=C(/C)C(=O)NC(=CC1=O)C2=O [17-AAG (Tanespimycin), Tanespimycin]
- Max Value (OTC/Geo Mean of HKs; DMSO = 1) [1, 7]: 1.69

Molecule: N#CC(c1ccnc(OCc2ccc(CN3CCOCC3)cc2)n1)c1nc2ccccc2s1 (stereo not drawn) [AS602801 (Bentamapimod), Bentamapimod]
- Max Value (OTC/Geo Mean of HKs; DMSO = 1) [1, 7]: 2.75

Molecule: Cc1cc(Nc2nc(N[C@@H](C)c3ncc(F)cn3)ncc2Cl)[nH]n1 [AZD1480]
- Max Value (OTC/Geo Mean of HKs; DMSO = 1) [1, 7]: 1.46

Molecule: Cc1ccc(-n2nc(C(C)(C)C)cc2NC(=O)Nc2ccc(OCCN3CCOCC3)c3ccccc23)cc1 [BIRB 796, Doramapimod]
- Max Value (OTC/Geo Mean of HKs; DMSO = 1) [1, 7]: 2.61

Molecule: O=C(NCCCNc1nc(Nc2cccc(NC(=O)N3CCCC3)c2)ncc1I)c1cccs1 [BX795]
- Max Value (OTC/Geo Mean of HKs; DMSO = 1) [1, 7]: 2.57

Molecule: CC1(C)CC[C@]2(C(=O)O)CC[C@]3(C)[C@H](C(=O)C=C4[C@@]5(C)C=C(C#N)C(=O)C(C)(C)[C@@H]5CC[C@]43C)[C@@H]2C1 [Bardoxolone]
- Max Value (OTC/Geo Mean of HKs; DMSO = 1) [1, 7]: 2.76

Molecule: CCS(=O)(=O)N1CC(CC#N)(n2cc(-c3ncnc4[nH]ccc34)cn2)C1 [Baricitinib]
- Max Value (OTC/Geo Mean of HKs; DMSO = 1) [1, 7]: 1.66

Molecule: N#CC(C#N)=NNc1cccc(Cl)c1 [CCCP]
- Max Value (OTC/Geo Mean of HKs; DMSO = 1) [1, 7]: 4.06

Molecule: C=CC(=O)Nc1cccc(Nc2nc(Nc3ccc(N4CCN(C(C)=O)CC4)cc3OC)ncc2C(F)(F)F)c1 [CO-1686 (Rociletinib), Rociletinib]
- Fold change (Log 2) vs untreated [2]: 0.89 Log 2
- NAGS expression, Fold change (Log 2) vs untreated [3]: 1.05 Log 2

Molecule: C=C1/C(=C\C=C2/CCC[C@]3(C)[C@@H]([C@H](C)CCCC(C)(C)O)CC[C@@H]23)C[C@@H](O)C[C@@H]1O [Calcitriol]
- NAGS expression, Fold change (Log 2) vs untreated [3, 8]: 1.2 Log 2

Molecule: CC1(COc2ccc3c(c2)ncn3-c2ccc3cccc(N4CCC(N)CC4)c3n2)COC1 [Crenolanib]
- Max Value (OTC/Geo Mean of HKs; DMSO = 1) [1, 7]: 2.79
- number of urea cycle genes whose expression was significantly up-regulated [4]: four
- Up-regulated Genes [4]: ASS1, ASL, OTC, ARG1

Molecule: c1cc(-c2cnn3cc(-c4ccc(OCCN5CCCCC5)cc4)cnc23)ccn1 [Dorsomorphin]
- Max Value (OTC/Geo Mean of HKs; DMSO = 1) [1, 7]: 4.78

Molecule: O=C(N[C@H]1CN2CCC1CC2)c1cc2cccc(Cl)c2s1 [EVP-6124 (hydrochloride) (encenicline), encenicline]
- NAGS expression, Fold change (Log 2) vs untreated [3, 8]: 0.75 Log 2

Molecule: CS[C@H]1SC[C@H]2C(=O)N(C)[C@@H](C(C)C)C(=O)OC[C@@H](NC(=O)c3cnc4ccccc4n3)C(=O)N[C@@H](C)C(=O)N(C)[C@@H]1C(=O)N(C)[C@@H](C(C)C)C(=O)OC[C@@H](NC(=O)c1cnc3ccccc3n1)C(=O)N[C@@H](C)C(=O)N2C [Echinomycin]
- number of urea cycle genes whose expression was significantly up-regulated [4]: six

Molecule: CCn1c(=O)c(-c2ccc(-c3cncs3)cc2Cl)cc2cnc(Nc3ccc(N4CCN(C)CC4)cc3)nc21 [FRAX597]
- number of urea cycle genes whose expression was significantly up-regulated [4]: five

Molecule: COc1cc2c(Oc3ccc(NC(=O)C4(C(=O)Nc5ccc(F)cc5)CC4)cc3F)ccnc2cc1OCCCN1CCOCC1 [Foretinib (GSK1363089), Foretinib]
- Max Value (OTC/Geo Mean of HKs; DMSO = 1) [1, 7]: 4.09

Molecule: O=C(Nc1nc2cccc(-c3ccc(CN4CCS(=O)(=O)CC4)cc3)n2n1)C1CC1 [GLPG0634]
- Max Value (OTC/Geo Mean of HKs; DMSO = 1) [1, 7]: 1.54

Molecule: Cc1cc(Nc2cc(CN3CCOCC3)c3nc(C)c(Cc4ccc(Cl)cc4F)n3n2)n[nH]1 [LY2784544]
- Max Value (OTC/Geo Mean of HKs; DMSO = 1) [1, 7]: 2.78

Molecule: Cc1ccc(F)c(NC(=O)Nc2ccc(-c3cccc4[nH]nc(N)c34)cc2)c1 [Linifanib (ABT-869), Linifanib]
- Max Value (OTC/Geo Mean of HKs; DMSO = 1) [1, 7]: 2.87

Molecule: O=C(NCCCNc1nc(Nc2cccc(CN3CCOCC3)c2)ncc1C1CC1)C1CCC1 [MRT67307]
- Max Value (OTC/Geo Mean of HKs; DMSO = 1) [1, 7]: 1.68

Molecule: N#CCNC(=O)c1ccc(-c2ccnc(Nc3ccc(N4CCOCC4)cc3)n2)cc1 [Momelotinib]
- Max Value (OTC/Geo Mean of HKs; DMSO = 1) [1, 7]: 3.52
- number of urea cycle genes whose expression was significantly up-regulated [4]: three
- Up-regulated Genes [4]: CPS1, OTC, ARG1

Molecule: CN(c1ncccc1CNc1nc(Nc2ccc3c(c2)CC(=O)N3)ncc1C(F)(F)F)S(C)(=O)=O [PF-00562271]
- Max Value (OTC/Geo Mean of HKs; DMSO = 1) [1, 7]: 3.3

Molecule: CC1(C)CC(=O)c2c(C(F)(F)F)nn(-c3ccc(C(N)=O)c(N[C@H]4CC[C@H](OC(=O)CN)CC4)c3)c2C1 [PF-04929113 (SNX-5422)]
- Max Value (OTC/Geo Mean of HKs; DMSO = 1) [1, 7]: 1.73

Molecule: CNC(=O)c1ccc(C)c(-n2c(C)cc(OCc3ccc(F)cc3F)c(Br)c2=O)c1 [PH-797804]
- Max Value (OTC/Geo Mean of HKs; DMSO = 1) [1, 7]: 1.53

Molecule: C1=C/COCc2cc(ccc2OCCN2CCCC2)Nc2nccc(n2)-c2cccc(c2)COC/1 [Pacritinib (SB1518), Pacritinib]
- number of urea cycle genes whose expression was significantly up-regulated [4]: five
- Up-regulated Genes [4]: CPS1, ASS1, ASL, OTC, ARG1

Molecule: Cn1c(=O)c(Oc2ccc(F)cc2F)cc2cnc(NC(CCO)CCO)nc21 [Pamapimod]
- Max Value (OTC/Geo Mean of HKs; DMSO = 1) [1, 7]: 1.73

Molecule: Cc1ccc(Nc2nccc(N(C)c3ccc4c(C)n(C)nc4c3)n2)cc1S(N)(=O)=O [Pazopanib]
- Max Value (OTC/Geo Mean of HKs; DMSO = 1) [1, 7]: 1.48

Molecule: [H]/N=C(/N)N/C(=N/[H])NCCc1ccccc1 [Phenformin]
- ARG1 expression, Fold change (Log 2) vs untreated [5]: 1.14 Log 2
- NAGS expression, Fold change (Log 2) vs untreated [3]: 1.38 Log 2

Molecule: CCCC(=O)O[C@@H]1[C@@H](C)[C@@]2(O)[C@@H](C=C(CO)C[C@]3(O)C(=O)C(C)=C[C@@H]23)[C@@H]2C(C)(C)[C@]12OC(=O)CCC [Phorbol 12,13-dibutyrate]
- NAGS expression, Fold change (Log 2) vs untreated [3, 8]: 0.62 Log 2

Molecule: NS(=O)(=O)C#Cc1ccccc1 [Pifithrin-u]
- ARG1 expression, Fold change (Log 2) vs untreated [5]: 1.87 Log 2

Molecule: NS(=O)(=O)C#Cc1ccccc1 [Pifithrin-μ]
- Fold change (Log 2) vs untreated [6]: 0.79 Log 2
- number of urea cycle genes whose expression was significantly up-regulated [4]: three
- Up-regulated Genes [4]: OTC, NAGS, ARG1
- NAGS expression, Fold change (Log 2) vs untreated [3, 8]: 1.18 Log 2

Molecule: N[C@@]1(C(=O)O)CS(=O)(=O)[C@H]2[C@H](C(=O)O)[C@H]21 [Pomaglumetad]
- Max Value (OTC/Geo Mean of HKs; DMSO = 1) [1, 7]: 1.49

Molecule: COc1cc(Nc2ncc(F)c(Nc3ccc4c(n3)N(COP(=O)(O)O)C(=O)C(C)(C)O4)n2)cc(OC)c1OC [R788 (fostamatinib disodium hexahydrate), fostamatinib disodium hexahydrate]
- number of urea cycle genes whose expression was significantly up-regulated [4]: three
- Up-regulated Genes [4]: CPS1, ARG1, SLC25A15

Molecule: Cl.Cn1c(=O)c(Oc2ccc(F)cc2F)cc2cnc(NC3CCOCC3)nc21 [R1487 Hydrochloride]
- Max Value (OTC/Geo Mean of HKs; DMSO = 1) [1, 7]: 1.64

Molecule: CNC(=O)c1cc(Oc2ccc(NC(=O)Nc3ccc(Cl)c(C(F)(F)F)c3)c(F)c2)ccn1 [Regorafenib]
- Max Value (OTC/Geo Mean of HKs; DMSO = 1) [1, 7]: 1.54
- Max Value (OTC/Geo Mean of HKs; DMSO = 1) ([1]; compound at 10 uM final concentration, listed as Regorafenib (BAY 73-4506)): 2.07

Molecule: C=CCNc1c(O)cc2c(O)c1C[C@@H](C)C[C@H](OC)[C@H](O)[C@@H](C)/C=C(\C)[C@H](OC(N)=O)[C@@H](OC)/C=C\C=C(/C)C(=O)N2 [Retaspimycin Hydrochloride]
- Max Value (OTC/Geo Mean of HKs; DMSO = 1) ([1]; compound tested at 1 uM): 1.48

Molecule: COc1cc2c(cc1OC)CN(C(=O)/C=C/c1c(-c3ccccc3)n(C)c3ncccc13)CC2 [SIS3]
- Max Value (OTC/Geo Mean of HKs; DMSO = 1) [1, 7]: 1.46
- NAGS expression, Fold change (Log 2) vs untreated [3]: 0.64 Log 2

Molecule: O=C(NCCCn1ccnc1)c1cc(-c2ccco2)on1 [SKL2001]
- NAGS expression, Fold change (Log 2) vs untreated [3]: 0.95 Log 2

Molecule: CC(C)[C@H](O)C(=O)N[C@@H](C)C(=O)N[C@@H]1C(=O)N(C)CCc2ccccc21 [Semagacestat]
- Max Value (OTC/Geo Mean of HKs; DMSO = 1) [1, 7]: 1.5

Molecule: Cc1cc(C)c(/C=C2\C(=O)Nc3ccccc32)[nH]1 [Semaxanib]
- NAGS expression, Fold change (Log 2) vs untreated [3, 8]: 2 Log 2

Molecule: CCN(CC)CCNC(=O)c1c(C)[nH]c(/C=C2\C(=O)Nc3ccc(F)cc32)c1C [Sunitinib]
- Max Value (OTC/Geo Mean of HKs; DMSO = 1) [1, 7]: 2.62

Molecule: CCS(=O)(=O)c1cccc(-c2cc(C(=O)NC3CCN(C)CC3)c(C)c3[nH]c4ncc(C)cc4c23)c1 [TAK-901]
- Max Value (OTC/Geo Mean of HKs; DMSO = 1) [1, 7]: 2.9

Molecule: CN1CCN(CCCN2c3ccccc3Sc3ccc(C(F)(F)F)cc32)CC1 [TFP, Trifluoperazine]
- NAGS expression, Fold change (Log 2) vs untreated [3, 8]: 0.58 Log 2

Molecule: COc1cc2nccc(Oc3ccc(NC(=O)Nc4cc(C)on4)c(Cl)c3)c2cc1OC [Tivozanib]
- Max Value (OTC/Geo Mean of HKs; DMSO = 1) [1, 7]: 1.57

Molecule: C[C@@H]1CCN(C(=O)CC#N)C[C@@H]1N(C)c1ncnc2[nH]ccc12 [Tofacitinib citrate]
- Max Value (OTC/Geo Mean of HKs; DMSO = 1) [1, 7]: 1.6

Molecule: CC(C)c1cc(CNc2nc(Nc3cc(C4CC4)[nH]n3)cc(N3CCN(C)CC3)n2)on1 [XL228]
- Max Value (OTC/Geo Mean of HKs; DMSO = 1) [1, 7]: 2.92

Molecule: COCCn1c2c([n+](Cc3cnccn3)c1C)C(=O)c1ccccc1C2=O [YM155 (Sepantronium Bromide), Sepantronium Bromide]
- Max Value (OTC/Geo Mean of HKs; DMSO = 1) [1, 7]: 3.16

Molecule: C[C@]12C=CC(=O)C=C1CC[C@@H]1[C@@H]2C(=O)C[C@@]2(C)[C@H]1CC[C@]2(O)C(=O)CO [prednisone]
- Fold change (Log 2) vs untreated [2]: 2.17 Log 2
- ARG1 expression, Fold change (Log 2) vs untreated [5]: 1.59 Log 2
- number of urea cycle genes whose expression was significantly up-regulated [4]: three
- Up-regulated Genes [4]: CPS1, NAGS, ARG1
- NAGS expression, Fold change (Log 2) vs untreated [3, 8]: 1 Log 2

Molecule: EGF: Epidermal Growth Factor; Pan-ErbB activator
- Fold change (Log 2) vs untreated [2]: 1.93 Log 2
- Fold change (Log 2) vs untreated [6]: 0.64 Log 2
- ARG1 expression, Fold change (Log 2) vs untreated [5]: 1.46 Log 2
- number of urea cycle genes whose expression was significantly up-regulated [4]: three
- Up-regulated Genes [4]: CPS1, OTC, ARG1

B1: GDF10 (BMP3b): member of the BMP family and the TGF-B superfamily (protein, UniProt P55107 369-478, looked up)
Growth/differentiation factor …: QWDEPRVCSRRYLKVDFADIGWNEWIISPKSFDAYYCAGACEFPMPKIVRPSNHATIQSIVRAVGIIPGIPEPCCVPDKMNSLGVLFLDENRNVVLKVYPNMSVDTCACR
- Fold change (Log 2) vs untreated [2]: 1.66 Log 2
- ARG1 expression, Fold change (Log 2) vs untreated [5]: 0.97 Log 2
